From US12415810B2, “2'-isopropyl-spiro (3,3'-pyrrolidine oxindole) liver X receptor regulator, preparation method therefor, and use thereof” (SHENZHEN CELL INSPIRE PHARMACEUTICAL DEVELOPMENT CO., LTD., priority 2019, dated 2025)
Read-outs that look alike come from different tables or passages of the source. One block for each molecule: values may come before it.

Legend:
[1] = tested on: SREBP-1c, ACC, FAS and SCD-1; assay: mRNA content of LXR downstream genes by qPCR in HepG2 cells; type: cell-based, human; conditions: 24 hours
Method: (§1) HepG2 cells were seeded in a 6-well plate with a cell density of 8×10^5 cells/well and incubated for 24 hours. The compounds to be tested were added and acted for 24 hours, and then the cells were harvested. The 3T3-L1 cells were harvested on day 6 of differentiation. The cells were washed twice with PBS, total RNA was extracted with RNAiso plus reagent, 1 μg of total RNA was reverse transcribed into cDNA using ReverTra Ace qPCR RT Master Mix, and PCR amplification was performed using SYBR Green Realtime PCR Master Mix.

[2] = tested on: Triton WR-1339-induced hyperlipidemia mice; assay: Lipid-lowering activity in Triton WR-1339-induced hyperlipidemia mice; type: in vivo, C57BL/6J mice; conditions: 100 mg/kg intragastric for 8 days
Method: 6-week-old SPF female C57BL/6J mice were purchased from the Experimental Animal Center of Sun Yat-sen University. The mice were randomly divided into 4 groups each including 6 mice, i.e., a normal control group, model a group, a fenofibrate group (100 mg/kg), and a B1 group (100 mg/kg), and intragastric administration was performed for 8 days. 24 hours before the last administration, the normal control group was intramuscularly injected with saline, and the remaining groups were injected with Triton WR-1339 (1500 mg/kg). One hour after the last administration, the eyeballs were removed to collect blood, the mice were executed by cervical dislocation, and the livers were collected. The plasma was allowed to stand for 1 hour, and the supernatant was collected by centrifugation at 4° C. and 3000 rpm. 100 mg of liver was weighed, added with methanol in 3 times the volume of the weighed liver, and homogenized thoroughly. Chloroform was then added in 6 times the volume and vortex oscillated. After centrifuging at 3000 rpm for 10 minutes, the lower chloroform layer was collected, and evaporated naturally overnight in a fume hood. 150 μL of 1% Triton ethanol was added and heated at 65° C. to be fully dissolved. Finally, triglycerides (TG), total cholesterol (TC), low-density lipoprotein cholesterol (LDL-C), and high-density lipoprotein cholesterol (HDL-C) in serum and liver samples were detected.

HepG2 cells = assay: Triglyceride test in HepG2 cells induced by high glucose; type: cell-based, human; conditions: concentration of 10 μM, 24 hours
Method: (2) HepG2 cells were seeded in a 12-well plate, cultured with DMEM (low sugar) medium and starved for 12 hours. When the cells grow to a density of 70%, the medium was changed to DMEM (high sugar) medium and the compound was added to act for 24 hours.

3T3-L1 cells = assay: cells; conditions: Mus musculus, 3T3-L1, 144 h, read-out: IC50 for lowering the triglyceride level in 3T3-L1 cells
Method: (1) Cell culture: human liver cancer cells (HepG2 cells) and mouse pre-adipocytes (3T3L1 cells) were cultured in DMEM (high glucose) medium containing 10% fetal bovine serum and 1% penicillin-streptomycin under conditions of 37° C. and 5% CO2.
(3) The steps of differentiation preadipocytes 3T3-L1 were as follows:
Cells were seeded in a 48-well plate, cultured in complete medium until the cells were completely in contact (day 0), and the medium was changed to a differentiation medium I (complete medium supplemented with 2 μg/mL of insulin, 100 ng/mL of dexamethasone, 0.5 mM of 3-isobutyl-1-methylxanthine, and 10 ng/mL of biotin) to culture for 3 days. The blank control group was still continued being cultured with the complete medium. On day 3, the medium was changed to a differentiation medium II (complete medium supplemented with 2 μg/mL of insulin) and culturing was continued for 3 days. On day 6, the cells were harvested for subsequent analysis.
(4) Triglyceride test: the treated cells were harvested, washed twice with icy PBS (0.2 M NaCl, 10 mM Na2HPO4, 3 mM KCl, 2 mM KH2PO4, pH 7.4), breaking the cells with ultrasonic waves, and detecting absorbance at 510 nm using the triglyceride detection kit (Nanjing Jiancheng Bioengineering Institute).

[3] = tested on: SREBP-1c, ACC, FAS and SCD-1; assay: mRNA content of LXR downstream genes by qPCR in 3T3-L1 cells; type: cell-based, mouse; conditions: day 6 of differentiation
Method: as §1

liver X receptors = assay: Liver X receptor activity test, (subtype not named); type: cell-based, human; conditions: for inverse activation of liver X receptors (in words): summary of Table 1; for activation of liver X receptors (in words): summary of Table 2
Method: (§2) (1) Cell culture: human embryonic kidney cells (HEK293T cells) were cultured in DMEM (high glucose) medium containing 10% fetal bovine serum and 1% penicillin-streptomycin under conditions of 37° C. and 5% CO2.
(§3) (2) Transfection: HEK293T cells were seeded in a 96-well plate with a cell density of 2×10^4 cells/well. After 24 hours, the cells were transfected according to instructions of Lipofectamine™ 3000 reagent. The specific steps of transfection were as follows: • (1) adding 15 μL of L3000 reagent to 500 μL of DMEM (high sugar) medium, and vortex oscillating for 2 seconds; • (2) mixing 6.5 μg of pGL3/(DR-4)-c-fos-FF-luc plasmid, 0.13 μg of pCMV/Renilla-luc plasmid, 1.3 μg of pSG5/hLXRα (or pSG5/hLXRβ plasmid), 1.3 μg of pSG5/hRXRα plasmid, and 19 μL of P3000 reagent in 500 μL of DMEM (high sugar) medium; • (3) adding the plasmid mixture to a liposome mixture and standing by at room temperature for 20 minutes; and • (4) adding 10 μL of liposome-DNA solution to each well of the 96-well plate, and gently shaking the 96-well plate to mix well.
(§4) (3) Drug intervention: after 5 hours of transfection, the compounds to be tested were added, and the plate was placed in an incubator to continue culturing for 20 hours.
(§5) (4) Detection: dual-luciferase reporter gene system was used for detection. The specific steps of detection were as follows: • (1) aspirating the original medium in the 96-well plate, adding cell lysate to the 96-well plate at 20 μL/well, and quickly shaking the plate at room temperature for 20 minutes; • (2) adding samples to a 384-well plate at 20 μL/well; • (3) adding firefly luciferase substrate to each well at 10 μL/well, and measuring chemiluminescence after 7 seconds; and • (4) adding Renilla luciferase substrate to the same sample well at 100 μL/well, and measuring chemiluminescence after 7 seconds.
(§6) Result processing: the results were analyzed using Renilla luciferase activity to correct the firefly luciferase activity.

LXRα = target: T1, LXRα (Homo sapiens, UniProt Q13133); assay: Liver X receptor activity test, dual-luciferase reporter gene in HEK293T cells (pSG5/hLXRα + hRXRα); type: cell-based; conditions: for EC50 / LXRα % Agonist effect: agonist activity
T1 construct: expressed in transfected cells; host or cells: HEK293T
T1 sequence (Q13133 1-447): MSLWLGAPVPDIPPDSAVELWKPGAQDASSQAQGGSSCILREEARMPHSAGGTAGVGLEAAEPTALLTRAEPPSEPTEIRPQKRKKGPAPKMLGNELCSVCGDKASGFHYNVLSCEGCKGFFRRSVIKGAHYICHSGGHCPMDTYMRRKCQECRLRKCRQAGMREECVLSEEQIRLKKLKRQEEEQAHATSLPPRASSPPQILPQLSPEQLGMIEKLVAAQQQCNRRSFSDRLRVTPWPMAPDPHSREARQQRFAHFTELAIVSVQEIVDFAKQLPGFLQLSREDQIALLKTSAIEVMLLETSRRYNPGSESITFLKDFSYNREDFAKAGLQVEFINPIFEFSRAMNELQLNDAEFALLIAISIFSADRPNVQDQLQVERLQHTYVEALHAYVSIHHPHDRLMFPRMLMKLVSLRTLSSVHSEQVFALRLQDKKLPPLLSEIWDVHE
T1 sequence (P19793 1-462 partner): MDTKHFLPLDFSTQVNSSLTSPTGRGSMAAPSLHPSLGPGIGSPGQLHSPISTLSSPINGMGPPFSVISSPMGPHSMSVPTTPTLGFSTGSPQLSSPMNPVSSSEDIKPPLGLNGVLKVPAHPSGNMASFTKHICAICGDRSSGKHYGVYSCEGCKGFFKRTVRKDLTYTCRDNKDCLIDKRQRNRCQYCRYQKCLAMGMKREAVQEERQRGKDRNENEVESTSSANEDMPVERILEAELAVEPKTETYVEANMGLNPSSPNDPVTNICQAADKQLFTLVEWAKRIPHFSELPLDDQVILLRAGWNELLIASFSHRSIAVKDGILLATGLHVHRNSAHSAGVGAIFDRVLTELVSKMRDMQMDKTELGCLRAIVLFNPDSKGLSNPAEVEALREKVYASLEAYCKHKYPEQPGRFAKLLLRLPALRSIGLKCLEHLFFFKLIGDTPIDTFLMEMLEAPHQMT
Method: as §2, §3, §4, §5, §6

LXRβ = target: T2, LXRβ (Homo sapiens, UniProt P55055); assay: Liver X receptor activity test, dual-luciferase reporter gene in HEK293T cells (pSG5/hLXRβ + hRXRα); type: cell-based
T2 construct: expressed in transfected cells; host or cells: HEK293T
T2 sequence (P55055 1-460): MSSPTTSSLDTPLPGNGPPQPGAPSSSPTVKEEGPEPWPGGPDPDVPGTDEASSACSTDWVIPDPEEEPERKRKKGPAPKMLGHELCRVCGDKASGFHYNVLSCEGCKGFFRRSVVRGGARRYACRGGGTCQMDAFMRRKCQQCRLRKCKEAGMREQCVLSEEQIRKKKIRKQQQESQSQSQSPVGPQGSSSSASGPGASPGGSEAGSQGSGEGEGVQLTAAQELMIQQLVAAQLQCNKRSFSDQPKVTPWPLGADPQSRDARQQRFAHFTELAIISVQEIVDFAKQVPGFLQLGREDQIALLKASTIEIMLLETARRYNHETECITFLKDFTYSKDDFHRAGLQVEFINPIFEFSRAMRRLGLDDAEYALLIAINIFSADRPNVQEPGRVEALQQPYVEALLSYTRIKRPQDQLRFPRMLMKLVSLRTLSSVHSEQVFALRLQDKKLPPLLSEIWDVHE
T2 sequence (P19793 1-462 partner): T1 sequence (P19793 1-462 partner)
Method: as §2, §3, §4, §5, §6

[4] = agonist activity, HEK293T reporter gene
[5] = inverse agonist activity, HEK293T reporter gene

Structure (SMILES): CC(C)[C@H]1N(C(=O)OC(C)(C)C)CC[C@]12C(=O)N(c1cccc(-c3ccc(CO)c(S(C)(=O)=O)c3)c1)c1ccccc12 [Compound 2a-1]
mRNA content of ACC [1]: significantly reduced
mRNA content of FAS [1]: significantly reduced
mRNA content of SCD-1 [1]: significantly reduced
mRNA content of SREBP-1c [1]: significantly reduced
triglyceride content in the livers of mice ([2]; liver): can reduce the triglyceride content
HDL-C/LDL-C level ([2]; serum): slightly increased
HDL-C/TC ([2]; serum): Neither fenofibrate nor compound 2a-1 had a significant effect
increase in HDL-C level induced by Triton WR-1339 ([2]; serum): significantly inhibit
increase in LDL-C level induced by Triton WR-1339 ([2]; serum): significantly inhibit
increase in TC level induced by Triton WR-1339 ([2]; serum): significantly inhibit
increase in TG level induced by Triton WR-1339 ([2]; serum): significantly inhibit
triglyceride accumulation in HepG2 cells induced by high glucose (HepG2 cells): significantly reduce
IC50 (3T3-L1 cells): 270 ± 30 nM
mRNA content of ACC [3]: reduced the mRNA content of SREBP-1c, ACC, FAS and SCD-1 in a concentration-dependent manner
mRNA content of FAS [3]: reduced the mRNA content of SREBP-1c, ACC, FAS and SCD-1 in a concentration-dependent manner
mRNA content of SCD-1 [3]: reduced the mRNA content of SREBP-1c, ACC, FAS and SCD-1 in a concentration-dependent manner
mRNA content of SREBP-1c [3]: reduced the mRNA content of SREBP-1c, ACC, FAS and SCD-1 in a concentration-dependent manner
inverse activation of liver X receptors (in words) (liver X receptors): can inversely activate liver X receptors

inverse activation of liver X receptors (in words) (liver X receptors): can inversely activate liver X receptors
Structure (SMILES): CC(C)[C@@H]1N(C(=O)OC(C)(C)C)CC[C@@]12C(=O)N(c1cccc(-c3ccc(CO)c(S(C)(=O)=O)c3)c1)c1ccccc12 [Compound 2a-2]

inverse activation of liver X receptors (in words) (liver X receptors): can inversely activate liver X receptors
Structure (SMILES): CC(C)[C@@H]1N(C(=O)OC(C)(C)C)CC[C@@]12C(=O)N(c1cccc(-c3ccc(CO)c(S(C)(=O)=O)c3)c1)c1ccccc12 [Compound 2a]

inverse activation of liver X receptors (in words) (liver X receptors): can inversely activate liver X receptors
Structure (SMILES): CC(C)[C@@H]1N(C(=O)C(F)(F)F)CC[C@@]12C(=O)N(c1cccc(-c3ccc(CO)c(S(C)(=O)=O)c3)c1)c1ccccc12 [Compound 2b]

inverse activation of liver X receptors (in words) (liver X receptors): can inversely activate liver X receptors
Structure (SMILES): CC(C)[C@@H]1N(C(=O)CC(C)(C)C)CC[C@@]12C(=O)N(c1cccc(-c3ccc(CO)c(S(C)(=O)=O)c3)c1)c1ccccc12 [Compound 2c]

inverse activation of liver X receptors (in words) (liver X receptors): can inversely activate liver X receptors
Structure (SMILES): CC(C)[C@@H]1N(C(=O)C(C)(C)C)CC[C@@]12C(=O)N(c1cccc(-c3ccc(CO)c(S(C)(=O)=O)c3)c1)c1ccccc12 [Compound 2d]

EC50 (LXRα): 6.92 µM
LXRα % Agonist effect (LXRα): 53%
activation of liver X receptors (in words) (liver X receptors): can activate liver X receptors
Structure (SMILES): CC(C)[C@@H]1N(C(=O)OC(C)(C)C)CC[C@@]12C(=O)N(c1cccc(-c3ccc(C(=O)N(C)C)c(Cl)c3)c1)c1ccccc12 [Compound 3a]

EC50 (LXRα): 3.67 µM
LXRα % Agonist effect (LXRα): 76%
EC50 (LXRβ; [4]): 3040 nM
LXRβ % Agonist effect (LXRβ; [4]): 50%
activation of liver X receptors (in words) (liver X receptors): can activate liver X receptors
Structure (SMILES): CC(C)[C@@H]1N(C(=O)C(C)(C)C)CC[C@@]12C(=O)N(c1cccc(-c3ccc(C(=O)N(C)C)c(Cl)c3)c1)c1ccccc12 [Compound 3b]

activation of liver X receptors (in words) (liver X receptors): can activate liver X receptors
Structure (SMILES): CC(C)[C@@H]1N(C(=S)NC(C)(C)C)CC[C@@]12C(=O)N(c1cccc(-c3ccc(C(=O)N(C)C)c(Cl)c3)c1)c1ccccc12 [Compound 3c]

Emax (LXRβ; HEK-293T, 20 h, inverse agonist activity, HEK293T reporter gene, read-out: LXRβ % Inverse agonist effect): 64%
IC50 (LXRβ; [5]): 10.1 µM
Structure (SMILES): CC(C)[C@@H]1N(C(=O)CC(C)(C)C)CC[C@@]12C(=O)N(c1cccc(-c3ccc4ccn(C)c4c3)c1)c1ccccc12 [Compound 4c]

EC50 (LXRα): 0.36 µM
LXRα % Agonist effect (LXRα): 100%
LXRβ % Agonist effect (LXRβ): 100%
EC50 (LXRβ; [4]): 210 nM
Structure (SMILES): O=C(O)Cc1cccc(OCCCN(Cc2cccc(C(F)(F)F)c2Cl)CC(c2ccccc2)c2ccccc2)c1 [GW3965, reference compound]

Structure (SMILES): CCOC(=O)c1ccc(CN(Cc2ccc(-c3cccc(S(C)(=O)=O)c3)cc2)S(=O)(=O)c2c(C)cc(C)cc2C)o1 [SR9238, reference compound]
IC50 (LXRα; inverse agonist activity): 160 nM
LXRα % Inverse agonist effect (LXRα; inverse agonist activity): 93%
IC50 (LXRβ; [5]): 0.1 µM
